{"source": "patent US12215106B2", "about": "“Pharmaceutical compounds and therapeutic methods” (RUTGERS, THE STATE UNIVERSITY OF NEW JERSEY, priority 2018, dated 2025)", "assay": "Plasma pharmacokinetics and brain distribution after single IV, IP and oral administration", "format": "in vivo", "procedure": "(§1) The objective of this study was to investigate the plasma pharmacokinetics and brain distribution of Compound (14 in male C57BL/6 mice following a single intravenous, intraperitoneal and oral administration. A group of sixty-three male mice were divided into three groups (Group 1: 2 mg/kg/IV; Group 2: 10 mg/kg/IP and Group 3: 10 mg/kg/PO) with each group comprising of twenty-one mice.\nAnimals in Group 1 were administered intravenously with Compound 15 solution formulation in 5% NMP, 5% Solutol HS-15, 30% PEG-400 and 60% Captisol (20% w/v) at 2 mg/kg dose. […] Considering mortality intravenous dose was reduced to 2 mg/kg.\nAnimals in Group 2 and 3 were administered with Compound 15 solution formulation in 5% NMP, 5% Solutol HS-15, 30% PEG-400 and 60% Captisol (20% w/v) at a dose of 10 mg/kg by intraperitoneal and oral route respectively.\n(§2) Blood samples (approximately 60 μL) were collected under light isoflurane anesthesia from retro orbital plexus from a set of three mice at 0.08, 0.35, 1, 3, 6, 12 and 24 hr. Plasma samples were separated by centrifugation of whole blood and stored below −70±10° C. until bioanalysis. Immediately after collection of blood, brain samples were collected from set of three mice at each time point. Brain samples were homogenized using ice-cold phosphate buffer saline (pH-7.4) in a ratio of 2 (buffer):1(brain); and homogenates were stored below −70±10° C. until analysis. Total homogenate volume was three times the brain weight. All samples were processed for analysis by protein precipitation using acetonitrile and analyzed with fit-for-purpose LC/MS/MS method (LLOQ2.00 ng/mL for plasma and 3.00 ng/g for brain). Pharmacokinetic parameters were calculated using the non-compartmental analysis tool of Phoenix WinNonlin® (Version 7.0). Pharmacokinetic parameters of Compound 15 are summarized below.\nas §1, with “Compound 16” for “Compound (14”, “1: 10” for “1: 2”\nAnimals in Group 1 were administered intravenously with Compound 16 solution formulation in 5% NMP, 5% Solutol HS-15 and 90% normal saline at 10 mg/kg dose.\nAnimals in Group 2 and 3 were administered with Compound 16 solution formulation in 5% NMP, 5% Solutol HS-15 and 90% normal saline at a dose of 10 mg/kg by intraperitoneal and oral route respectively.\nas §2, with “(LLOQ—1.00” for “(LLOQ2.00”, “16” for “15”\nas §1, with “17” for “(14”, “mice. […]” for “mice.”", "key": {"[1]": {"conditions": "male, C57BL/6, mouse, in vivo, iv, 2 mg/kg, Mean brain conc."}, "[2]": {"conditions": "male, C57BL/6, mouse, in vivo, iv, 2 mg/kg, Mean plasma conc."}, "[3]": {"conditions": "male, C57BL/6, mouse, in vivo, iv, 2 mg/kg, Plasma concentration, individual animal"}, "[4]": {"conditions": "male, C57BL/6, mouse, in vivo, po, 10 mg/kg"}, "[5]": {"conditions": "male, C57BL/6, mouse, in vivo, po, 10 mg/kg, 12 h"}, "[6]": {"conditions": "male, C57BL/6, mouse, in vivo, po, 10 mg/kg, 24 h"}, "[7]": {"conditions": "male, C57BL/6, mouse, in vivo, po, 10 mg/kg, Brain concentration, individual animal"}, "[8]": {"conditions": "male, C57BL/6, mouse, in vivo, po, 10 mg/kg, Mean brain conc."}, "[9]": {"conditions": "male, C57BL/6, mouse, in vivo, po, 10 mg/kg, Mean plasma conc."}, "[10]": {"conditions": "male, C57BL/6, mouse, in vivo, po, 10 mg/kg, Plasma concentration, individual animal"}, "[11]": {"conditions": "male, C57BL/6, mouse, plasma, IP 10 mg/kg"}, "[12]": {"conditions": "male, C57BL/6, mouse, plasma, IV 2 mg/kg"}, "[13]": {"conditions": "male, C57BL/6, mouse, plasma, PO 10 mg/kg"}}, "note": "Structures can show the parent of a compound that is named as a salt. Where two headings read alike, the source gives them in different places."}
{"compound": "[2H]C1([2H])Oc2ccc(Nc3nc(-c4c(C)nc5ccccn45)cs3)cc2O1", "note": "[Compound 17, N-(benzo[d][1,3]dioxol-5-yl-2,2-d2)-4-(2-methylimidazo[1,2-c]pyridin-3-yl)thiazol-2-amine hydrochloride]", "values": [{"measurement": "concentration at 6 h", "setting": "[1]", "value": 0, "unit": "ng/g"}, {"measurement": "concentration at 12 h", "setting": "[1]", "value": 0, "unit": "ng/g"}, {"measurement": "concentration at 24 h", "setting": "[1]", "value": 0, "unit": "ng/g"}, {"measurement": "concentration at 0.08 h", "setting": "[2]", "value": 256, "unit": "ng/mL"}, {"measurement": "concentration at 0.35 h", "setting": "[2]", "value": 44.8, "unit": "ng/mL"}, {"measurement": "concentration at 1 h", "setting": "[2]", "value": 9.57, "unit": "ng/mL"}, {"measurement": "concentration at 3 h", "setting": "[2]", "value": 0, "unit": "ng/mL"}, {"measurement": "concentration at 6 h", "setting": "[2]", "value": 0, "unit": "ng/mL"}, {"measurement": "concentration at 12 h", "setting": "[2]", "value": 0, "unit": "ng/mL"}, {"measurement": "concentration at 24 h", "setting": "[2]", "value": 0, "unit": "ng/mL"}, {"measurement": "concentration at 0.08 h", "setting": "[3]", "value": 260, "unit": "ng/mL"}, {"measurement": "concentration at 0.35 h", "setting": "[3]", "value": 41.5, "unit": "ng/mL"}, {"measurement": "concentration at 3 h", "setting": "[3]", "value": 0, "unit": "ng/mL"}, {"measurement": "concentration at 6 h", "setting": "[3]", "value": 0, "unit": "ng/mL"}, {"measurement": "concentration at 12 h", "setting": "[3]", "value": 0, "unit": "ng/mL"}, {"measurement": "concentration at 24 h", "setting": "[3]", "value": 0, "unit": "ng/mL"}, {"measurement": "Brain concentrations quantifiable up to", "setting": "[4]", "value": "up to 6 hr"}, {"measurement": "Plasma concentrations quantifiable up to", "setting": "[4]", "value": "up to 6 hr"}, {"measurement": "Brain concentration, individual animal", "setting": "[5]", "value": 0.00, "unit": "ng/g"}, {"measurement": "Plasma concentration, individual animal", "setting": "[5]", "value": 0.00, "unit": "ng/mL"}, {"measurement": "Brain concentration, individual animal", "setting": "[6]", "value": 0.00, "unit": "ng/g"}, {"measurement": "Plasma concentration, individual animal", "setting": "[6]", "value": 0.00, "unit": "ng/mL"}, {"measurement": "concentration at 0.35 h", "setting": "[7]", "value": 43.6, "unit": "ng/g"}, {"measurement": "concentration at 3 h", "setting": "[7]", "value": 28.1, "unit": "ng/g"}, {"measurement": "concentration at 12 h", "setting": "[7]", "value": 0, "unit": "ng/g"}, {"measurement": "concentration at 24 h", "setting": "[7]", "value": 0, "unit": "ng/g"}, {"measurement": "concentration at 0.35 h", "setting": "[8]", "value": 53, "unit": "ng/g"}, {"measurement": "concentration at 1 h", "setting": "[8]", "value": 51.9, "unit": "ng/g"}, {"measurement": "concentration at 3 h", "setting": "[8]", "value": 20.5, "unit": "ng/g"}, {"measurement": "concentration at 6 h", "setting": "[8]", "value": 10.5, "unit": "ng/g"}, {"measurement": "concentration at 12 h", "setting": "[8]", "value": 0, "unit": "ng/g"}, {"measurement": "concentration at 24 h", "setting": "[8]", "value": 0, "unit": "ng/g"}, {"measurement": "concentration at 0.35 h", "setting": "[9]", "value": 163, "unit": "ng/mL"}, {"measurement": "concentration at 1 h", "setting": "[9]", "value": 109, "unit": "ng/mL"}, {"measurement": "concentration at 3 h", "setting": "[9]", "value": 63.5, "unit": "ng/mL"}, {"measurement": "concentration at 6 h", "setting": "[9]", "value": 45.5, "unit": "ng/mL"}, {"measurement": "concentration at 12 h", "setting": "[9]", "value": 0, "unit": "ng/mL"}, {"measurement": "concentration at 24 h", "setting": "[9]", "value": 0, "unit": "ng/mL"}, {"measurement": "concentration at 3 h", "setting": "[10]", "value": 62.6, "unit": "ng/mL"}, {"measurement": "concentration at 12 h", "setting": "[10]", "value": 0, "unit": "ng/mL"}, {"measurement": "concentration at 24 h", "setting": "[10]", "value": 0, "unit": "ng/mL"}, {"measurement": "concentration at 0.08 h", "setting": "male, C57BL/6, mouse, in vivo, IP 10 mg/kg, 0.08 hr, read-out: Mean brain conc.", "value": 288, "unit": "ng/g"}, {"measurement": "concentration at 0.08 h", "setting": "male, C57BL/6, mouse, in vivo, IP 10 mg/kg, 0.08 hr, read-out: Mean plasma conc.", "value": 469, "unit": "ng/mL"}, {"measurement": "Kp at 0.08 h", "setting": "male, C57BL/6, mouse, in vivo, IV 2 mg/kg, 0.08 hr, read-out: Brain-to-plasma ratio", "value": 0.18}, {"measurement": "Kp at 0.35 h", "setting": "male, C57BL/6, mouse, in vivo, IV 2 mg/kg, 0.35 hr, read-out: Brain-to-plasma ratio", "value": 4.03}, {"measurement": "Kp at 1 h", "setting": "male, C57BL/6, mouse, in vivo, IV 2 mg/kg, 1 hr, read-out: Brain-to-plasma ratio", "value": 1.45}, {"measurement": "concentration at 0.08 h", "setting": "male, C57BL/6, mouse, in vivo, PO 10 mg/kg, 0.08 hr, read-out: Mean brain conc.", "value": 67.3, "unit": "ng/g"}, {"measurement": "concentration at 0.08 h", "setting": "male, C57BL/6, mouse, in vivo, PO 10 mg/kg, 0.08 hr, read-out: Mean plasma conc.", "value": 207, "unit": "ng/mL"}, {"measurement": "Cmax", "setting": "male, C57BL/6, mouse, in vivo, brain, IP 10 mg/kg", "value": 288, "unit": "ng/g"}, {"measurement": "Cmax", "setting": "male, C57BL/6, mouse, in vivo, brain, PO 10 mg/kg", "value": 67.3, "unit": "ng/g"}, {"measurement": "Cmax", "setting": "male, C57BL/6, mouse, in vivo, plasma, IP 10 mg/kg", "value": 469, "unit": "ng/mL"}, {"measurement": "Cmax", "setting": "male, C57BL/6, mouse, in vivo, plasma, PO 10 mg/kg", "value": 207, "unit": "ng/mL"}, {"measurement": "bioavailability", "setting": "male, C57BL/6, mouse, plasma, po, 10 mg/kg, PO 10 mg/kg, AUClast considered, read-out: Oral bioavailability, % F", "value": "> 100", "unit": "%"}, {"measurement": "bioavailability", "setting": "male, C57BL/6, mouse, plasma, po, 10 mg/kg, summary data, read-out: Oral bioavailability", "value": "> 100", "unit": "%"}, {"measurement": "Tmax", "setting": "male, C57BL/6, mouse, brain, IP 10 mg/kg", "value": 4.8, "unit": "min"}, {"measurement": "Tmax", "setting": "male, C57BL/6, mouse, brain, PO 10 mg/kg", "value": 4.8, "unit": "min"}, {"measurement": "AUC(0-inf)", "setting": "[11]", "value": 786, "unit": "ng·h/mL"}, {"measurement": "AUC(0-t)", "setting": "[11]", "value": 675, "unit": "ng·h/mL"}, {"measurement": "Tmax", "setting": "[11]", "value": 4.8, "unit": "min"}, {"measurement": "AUC(0-inf)", "setting": "[12]", "value": 88.2, "unit": "ng·h/mL"}, {"measurement": "AUC(0-t)", "setting": "[12]", "value": 85.7, "unit": "ng·h/mL"}, {"measurement": "clearance", "setting": "male, C57BL/6, mouse, plasma, IV 2 mg/kg, read-out: CL, plasma clearance", "value": 378, "unit": "mL/min/kg"}, {"measurement": "half-life", "setting": "male, C57BL/6, mouse, plasma, IV 2 mg/kg, read-out: T1/2, terminal elimination half-life (converted)", "value": 12.6, "unit": "min"}, {"measurement": "Vd", "setting": "male, C57BL/6, mouse, plasma, IV 2 mg/kg, read-out: Vss", "value": 4.4, "unit": "L/kg"}, {"measurement": "AUC(0-t)", "setting": "[13]", "value": 482, "unit": "ng·h/mL"}, {"measurement": "Tmax", "setting": "[13]", "value": 4.8, "unit": "min"}, {"measurement": "mortality immediately after dose administration", "setting": "mouse, in vivo, iv, 10 mg/kg", "value": "mortality was observed in six animals"}, {"measurement": "Oral bioavailability", "setting": "summary data, hydrochloride", "value": 112, "unit": "%"}]}
